A word on the inhibition: it is the percentage by which the read-out fell short of the control. For orientation: EC50 means the concentration needed to bring the measured effect to its halfway point.

For assay [1], the target named is T1, Sphingosine 1-phosphate receptor 4 (Homo sapiens) (UniProt O95977).
T1 sequence (whole entry): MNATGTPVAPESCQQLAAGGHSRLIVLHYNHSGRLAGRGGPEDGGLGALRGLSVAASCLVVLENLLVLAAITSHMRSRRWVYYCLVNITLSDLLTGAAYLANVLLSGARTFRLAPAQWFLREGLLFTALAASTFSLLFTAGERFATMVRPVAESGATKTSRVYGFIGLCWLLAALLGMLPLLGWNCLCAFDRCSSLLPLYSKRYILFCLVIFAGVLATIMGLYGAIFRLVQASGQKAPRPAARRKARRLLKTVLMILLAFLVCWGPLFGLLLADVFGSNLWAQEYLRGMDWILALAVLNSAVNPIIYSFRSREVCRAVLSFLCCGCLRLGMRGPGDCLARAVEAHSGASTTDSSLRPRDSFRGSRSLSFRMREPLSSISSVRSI
As to the kind of experiment: Agonist activity at human S1P4R expressed in human U2OS cells containing EDG6 gene co-expressing GAL4-VP16 and beta-arrestin/TEV protease assessed as migration of VP16-GAL4 into nucleus at 2600 nM by […] based beta-lactamase reporter gene assay. Format: functional, cell-based. (A reporter such as luciferase makes a cellular process visible.)

Assay [2] concerns the target T2, Sphingosine 1-phosphate receptor 4 (Homo sapiens, UniProt O95977).
T2 sequence (O95977 whole entry): T1 sequence (whole entry)
As to the kind of experiment: Agonist activity at human S1P4R expressed in human U2OS cells containing EDG6 gene co-expressing GAL4-VP16 and beta-arrestin/TEV protease assessed as migration of VP16-GAL4 into nucleus by […] based beta-lactamase reporter gene assay. Format: functional, cell-based.

Assay [3] deals with T2, Sphingosine 1-phosphate receptor 4. As to the kind of experiment: Agonist activity at human S1P4R expressed in human U2OS cells containing EDG6 gene co-expressing GAL4-VP16 and beta-arrestin/TEV protease assessed as migration of VP16-GAL4 into nucleus up to 25 uM by […] based beta-lactamase reporter gene assay. Format: functional, cell-based.
Assay [4] concerns the target Sphingosine 1-phosphate receptor 1 (Homo sapiens, UniProt P21453). As to the kind of experiment: Agonist activity at S1P1R up to 25 uM. Format: functional.
The target of assay [5] is Sphingosine 1-phosphate receptor 3 (Homo sapiens, UniProt Q99500). As to the kind of experiment: Agonist activity at S1P3R up to 25 uM. Type of assay: functional.
Assay [6] has as its target Sphingosine 1-phosphate receptor 5 (Homo sapiens, UniProt Q9H228). The experiment in a line: Agonist activity at S1P5R up to 25 uM. Type of assay: functional.
Assay [7] concerns the target Sphingosine 1-phosphate receptor 2 (Homo sapiens, UniProt O95136). As to the kind of experiment: Agonist activity at S1P2R up to 25 uM. Format: functional.
Assay [8] has as its target T1, Sphingosine 1-phosphate receptor 4 (Homo sapiens). As to the kind of experiment: Agonist activity at human S1P4R expressed in human U2OS cells containing EDG6 gene co-expressing GAL4-VP16 and beta-arrestin/TEV protease assessed as migration of VP16-GAL4 into nucleus at 1300 nM by […] based beta-lactamase reporter gene assay. Type of assay: functional, cell-based.

For assay [9] the target is unchanged. The experiment in a line: Agonist activity at human S1P4R expressed in human U2OS cells containing EDG6 gene co-expressing GAL4-VP16 and beta-arrestin/TEV protease assessed as migration of VP16-GAL4 into nucleus at 50 uM by […] based beta-lactamase reporter gene assay. Format: functional, cell-based.
Assay [10] has the same target. As to the kind of experiment: Agonist activity at human S1P4R expressed in human U2OS cells containing EDG6 gene co-expressing GAL4-VP16 and beta-arrestin/TEV protease assessed as migration of VP16-GAL4 into nucleus at 6000 nM by […] based beta-lactamase reporter gene assay. Type of assay: functional, cell-based.

The structures appear in SMILES notation.

Chain of Sphingosine 1-phosphate receptor 5 (Q9H228 whole entry): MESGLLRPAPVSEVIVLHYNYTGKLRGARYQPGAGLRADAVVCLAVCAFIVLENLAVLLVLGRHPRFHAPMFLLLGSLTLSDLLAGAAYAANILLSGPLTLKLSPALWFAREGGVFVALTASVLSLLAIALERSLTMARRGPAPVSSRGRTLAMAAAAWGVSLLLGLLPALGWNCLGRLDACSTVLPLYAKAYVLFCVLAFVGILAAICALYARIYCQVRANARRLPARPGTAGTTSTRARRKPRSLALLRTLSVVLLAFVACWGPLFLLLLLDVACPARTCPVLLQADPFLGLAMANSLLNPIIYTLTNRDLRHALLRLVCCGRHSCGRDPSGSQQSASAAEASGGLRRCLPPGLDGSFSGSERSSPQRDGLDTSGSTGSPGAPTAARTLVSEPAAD
Chain of Sphingosine 1-phosphate receptor 3 (Q99500 whole entry): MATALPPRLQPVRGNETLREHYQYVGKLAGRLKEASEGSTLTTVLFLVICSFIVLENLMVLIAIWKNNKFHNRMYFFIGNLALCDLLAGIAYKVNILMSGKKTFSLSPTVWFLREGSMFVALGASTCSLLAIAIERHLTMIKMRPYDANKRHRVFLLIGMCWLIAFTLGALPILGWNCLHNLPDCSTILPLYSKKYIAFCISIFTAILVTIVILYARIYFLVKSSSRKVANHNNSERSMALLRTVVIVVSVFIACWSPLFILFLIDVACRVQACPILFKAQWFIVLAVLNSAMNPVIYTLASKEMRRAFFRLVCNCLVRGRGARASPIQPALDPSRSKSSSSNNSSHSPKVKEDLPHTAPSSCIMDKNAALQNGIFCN
Chain of Sphingosine 1-phosphate receptor 1 (P21453 whole entry): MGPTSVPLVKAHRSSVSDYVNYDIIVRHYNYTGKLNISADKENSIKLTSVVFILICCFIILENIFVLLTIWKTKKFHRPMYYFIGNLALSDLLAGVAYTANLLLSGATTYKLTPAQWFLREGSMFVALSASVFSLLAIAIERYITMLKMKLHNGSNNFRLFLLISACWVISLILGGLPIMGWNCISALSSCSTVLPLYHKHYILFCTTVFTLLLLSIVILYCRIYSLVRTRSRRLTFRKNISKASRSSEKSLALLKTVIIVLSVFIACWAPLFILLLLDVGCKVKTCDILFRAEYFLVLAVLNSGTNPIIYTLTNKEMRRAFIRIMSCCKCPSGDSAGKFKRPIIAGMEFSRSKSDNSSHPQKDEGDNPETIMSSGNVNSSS
Chain of Sphingosine 1-phosphate receptor 2 (O95136 whole entry, the tested form may be a part): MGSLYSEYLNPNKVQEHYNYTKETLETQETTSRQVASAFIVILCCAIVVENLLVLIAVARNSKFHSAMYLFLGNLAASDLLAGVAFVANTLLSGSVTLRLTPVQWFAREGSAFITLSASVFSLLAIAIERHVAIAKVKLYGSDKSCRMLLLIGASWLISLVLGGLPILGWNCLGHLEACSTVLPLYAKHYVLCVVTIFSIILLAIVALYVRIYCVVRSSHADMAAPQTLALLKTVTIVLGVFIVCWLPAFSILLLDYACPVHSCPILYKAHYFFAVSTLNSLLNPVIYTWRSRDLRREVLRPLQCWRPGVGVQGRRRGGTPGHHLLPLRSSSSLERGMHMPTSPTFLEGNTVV

For `Cc1ccc(OCCOc2ccc(Cl)cc2Cl)c(C)n1`, the inhibition in assay [1] turned out to be 65%. In [2], the EC50 came to 2.6 µM. With `CC(C)=Cc1ccc(OCCOc2ccc(Cl)cc2Cl)c(Cl)n1`, in [3], the half-maximal effective concentration (EC50) entry was “Not Active”.

On to `Cc1ccc(OCCOc2cc(Cl)cc([N+](=O)[O-])c2)c([N+](=O)[O-])n1`, for which, in assay [2], the half-maximal effective concentration (EC50) was 3.5 µM.

Take `Clc1ccc(OCCOc2cccnc2Br)c(Cl)c1`: the half-maximal effective concentration (EC50) in [2] was 1.3 µM. With `OCc1ccc(OCCOc2ccc(Cl)cc2Cl)c(I)n1`, the EC50 entry is “Not Active” in assay [4]; “Not Active” in assay [5]; 0.287 µM in assay [2]; “Not Active” in [6]; “Not Active” in assay [7].

For the compound `FCc1ccc(OCCOc2ccc(Cl)cc2Cl)c(Cl)n1`, the half-maximal effective concentration (EC50) entry in [4] is “Not Active”; in [5], “Not Active”; in assay [2], 0.045 µM; in assay [6], “Not Active”; in assay [7] it was “Not Active”. On to `Cc1ccc(OCCOc2ccc(Br)cc2C(F)(F)F)c([N+](=O)[O-])n1`, for which the EC50 result was “Not Active” in [4]; “Not Active” in assay [5]; 0.601 µM in [2]; “Not Active” in assay [6]; “Not Active” in assay [7].

In the case of `Cc1ccc2oc(COc3ccc(Cl)cc3Cl)nc2n1`, the half-maximal effective concentration (EC50) result in [3] was “Not Active”. The same measure, in the same setting: to `Cc1ccc(OCCOc2cccc(Cl)c2Cl)c([N+](=O)[O-])n1` belongs “Not Active”.

For `Cc1ccc(OCCOc2cc(Cl)ccc2Cl)c([N+](=O)[O-])n1`, in assay [3], the EC50 entry is given as “Not Active”.

In the case of `OCc1ccc(OCCOc2ccc(Cl)cc2Cl)c(Cl)n1`, the EC50 in [2] is 1.5 µM. In the case of `Cc1ccc(OCCOc2ccc(Cl)cc2Br)c([N+](=O)[O-])n1`, the EC50 result was “Not Active” in assay [4]; “Not Active” in [5]; 0.232 µM in [2]; “Not Active” in [6]; “Not Active” in assay [7]. `Cc1ccc(OCCOc2ccc(Cl)cc2Cl)c([N+](=O)[O-])n1`: the EC50 entry was “Not Active” in assay [4]; “Not Active” in assay [5]; 0.162 µM in [2]; “Not Active” in assay [6]; “Not Active” in [7].

Turning to `O=Cc1ccc(OCCOc2ccc(Cl)cc2Cl)c(I)n1`, the EC50 in assay [2] is 2.1 µM.

`Cc1cc(C)c(OCCOc2ccc(Cl)cc2Cl)c(Br)n1`: in assay [3], the EC50 result was “Not Active”. Turning to `Cc1ccc(OCCOc2ccc(Cl)cc2Cl)c(I)n1`, the EC50 result is “Not Active” in assay [4]; “Not Active” in assay [5]; 0.054 µM in assay [2]; “Not Active” in assay [6]; “Not Active” in [7]. As to `Cc1ccc(OCCOc2ccc(Cl)cc2F)c([N+](=O)[O-])n1`, the concentration giving a half-maximal response (EC50) in assay [2] was found to be 3.1 µM. For `Cc1ccc(OCCOc2ccc(Cl)c(Cl)c2)c([N+](=O)[O-])n1`, the EC50 result in assay [3] is “Not Active”. As for `O=Cc1ccc(OCCOc2ccc(Cl)cc2Cl)c(Cl)n1`, in [2], the EC50 was 1.8 µM.

Take `Cc1ccc(OCCc2ccc(Cl)cc2Cl)c([N+](=O)[O-])n1`: in assay [3], the EC50 entry is “Not Active”. Same read-out and setting: to `Cc1ccc(OC2CCCC2Oc2ccc(Cl)cc2Cl)c([N+](=O)[O-])n1` (stereo unspecified) belongs “Not Active”; to `COCc1ccc(OCCOc2ccc(Cl)cc2Cl)c(Cl)n1`, “Not Active”. On the same count and under the same terms, to `Cc1ccc(OCCCOc2ccc(Cl)cc2Cl)c([N+](=O)[O-])n1` belongs “Not Active”. For the compound `Cc1ccc(OCCOc2ccc(Cl)cc2Cl)c(CO)n1`, in assay [3], the EC50 result is on record as “Not Active”. As for `Clc1ccc(OCCOc2ccc(Br)nc2Br)c(Cl)c1`, the EC50 result in [4] is “Not Active”; in [5] it was “Not Active”; in assay [2], 0.046 µM; in assay [6], “Not Active”; in assay [7], “Not Active”. As to `Cc1ccc(OCCOc2ccc(Cl)cc2Cl)c([N+](=O)[O-])c1`, the inhibition in [8] came to 40%. Also, the EC50 in assay [2] amounted to 1.3 µM.

For `Cc1ccc(OCCCc2ccc(Cl)cc2Cl)c([N+](=O)[O-])n1`, the EC50 in assay [2] is 0.92 µM. Still for that read-out and setting: to `Fc1ccc(OCCOc2ccc(Cl)cc2Cl)c(Br)n1` belongs 0.208 µM.

On to `Cc1ccc(OCCOc2ccc(Cl)cc2)c([N+](=O)[O-])n1`, for which, in assay [3], the concentration giving a half-maximal response (EC50) result is on record as “Not Active”. Consider `Cc1ccc(OCCOc2ccc(Br)cc2Cl)c([N+](=O)[O-])n1`, for which the concentration for a half-maximal effect (EC50) result in assay [4] was “Not Active”; in [5], “Not Active”; in assay [2] it was 0.22 µM; in assay [6] it was “Not Active”; in assay [7] it was “Not Active”. For the compound `C=Cc1ccc(OCCOc2ccc(Cl)cc2Cl)c(Cl)n1`, the 50% effective concentration (EC50) in [2] came out at 0.658 µM. On to `Cc1ccc(OCCOc2c(Cl)cc(Cl)cc2Cl)c([N+](=O)[O-])n1`, for which the EC50 result in [4] was “Not Active”; in [5], “Not Active”; in [2], 0.57 µM; in [6], “Not Active”; in assay [7], “Not Active”. Consider `O=[N+]([O-])c1ncccc1OCCOc1ccc(Cl)cc1Cl`, for which the EC50 in assay [2] was 2.98 µM.

Take `COC(=O)c1nc(C)ccc1OCCOc1ccc(Cl)cc1Cl`: in assay [2], the EC50 is 4.8 µM.

Regarding `Cc1ccc(OCCOc2ccc(Cl)cc2Cl)c(C(=O)N(C)C)n1`, in assay [3], the EC50 entry is given as “Not Active”. As for `Cc1ccc(OCCOc2ccc(Cl)cc2Cl)c(N)n1`, the 50% effective concentration (EC50) entry in assay [3] is recorded as “Not Active”.

As for `Cc1ccc(NCCOc2ccc(Cl)cc2Cl)c([N+](=O)[O-])n1`, the concentration giving a half-maximal response (EC50) result in [3] is recorded as “Not Active”.

Consider `Cc1ccc(OCCOc2ccc(Cl)cc2Cl)c(-c2ccccc2)n1`, for which the 50% effective concentration (EC50) result in assay [3] is “Not Active”. On to `Cc1ccc(OCCOc2ccc(F)cc2F)c([N+](=O)[O-])n1`, for which, in [9], the inhibition turned out to be 40%. Consider `Cc1ccc(OCCOc2ccc([N+](=O)[O-])cc2F)c([N+](=O)[O-])n1`, for which the EC50 in assay [2] turned out to be 2.8 µM. For `Cc1ccc(OCCOc2ccccc2)c([N+](=O)[O-])n1`, the concentration giving a half-maximal response (EC50) result in [3] is reported as “Not Active”. On the same count and under the same terms, in the case of `Cc1ccc(OC(=O)COc2ccc(Cl)cc2Cl)c([N+](=O)[O-])n1` it was “Not Active”; in that of `Cc1ccc(OCCOc2ccc(Cl)cc2Cl)c(C(=O)O)n1`, “Not Active”. For the compound `CCc1nc(C)ccc1OCCOc1ccc(Cl)cc1Cl`, the half-maximal effective concentration (EC50) in assay [2] stood at 7.3 µM.

On to `Cc1ccc(OCCOc2ccc(-c3ccccc3)cc2Cl)c([N+](=O)[O-])n1`, for which the concentration giving a half-maximal response (EC50) entry in assay [3] is “Not Active”. Take `COc1ccc(OCCOc2ccc(C)nc2[N+](=O)[O-])c(Cl)c1`: the half-maximal effective concentration (EC50) in assay [2] stood at 3.9 µM.

Consider `Clc1ccc(OCCOc2ccc(-c3ccccc3)nc2Br)c(Cl)c1`, for which the 50% effective concentration (EC50) in [2] was determined as 6 µM. Besides, the inhibition in assay [10] came out at 70%. For the compound `Cc1ccc(OCCOc2ccc(C)nc2[N+](=O)[O-])c(C)c1`, the EC50 in [2] was determined as 7.2 µM.

Consider `Cc1ccc(OCCOc2ccccc2Cl)c([N+](=O)[O-])n1`, for which, in assay [3], the EC50 entry is “Not Active”. Consider `Cc1ccc(OCCOc2ccc(Cl)cc2Cl)cn1`, for which, in assay [3], the concentration giving a half-maximal response (EC50) entry is listed as “Not Active”. Regarding `Cc1ccc(OCCOc2ccc(F)cc2Cl)c([N+](=O)[O-])n1`, the EC50 in [2] stood at 2.6 µM. For the compound `Cc1ccc(OCCOc2ccc(Cl)cc2Cl)c(Br)n1`, the EC50 result is “Not Active” in assay [4]; “Not Active” in assay [5]; 0.052 µM in assay [2]; “Not Active” in [6]; “Not Active” in [7]. As for `O=[N+]([O-])c1nc(Cl)ccc1OCCOc1ccc(Cl)cc1Cl`, the EC50 result in [4] was “Not Active”; in [5] it was “Not Active”; in [2] it was 0.304 µM; in assay [6], “Not Active”; in assay [7], “Not Active”. For the compound `COc1cc(Cl)ccc1OCCOc1ccc(C)nc1[N+](=O)[O-]`, the concentration giving a half-maximal response (EC50) in assay [2] came out at 5.4 µM.

Values taken from ChEMBL document CHEMBL1932962, “Discovery, design and synthesis of novel potent and selective sphingosine-1-phosphate 4 receptor (S1P₄-R) agonists” (Bioorg Med Chem Lett, 2012).
